Series [1] deals with human primary dermal papilla cells. Conditions: 10 nM DHT, 24 hours. The method, then:
A fibroblast medium was used as a medium.
24 hours after serum-starved cells were removed, human primary dermal papilla cells were treated with a high level of androgen by adding 10 nM DHT to a culture medium. Expression levels of cellular molecular markers (including 5α-dehydrogenase, AR, CD200, IL-6, BCL2, BAX, and FABP3) were detected after 24 hours. Homologous polypeptides from different species (the polypeptides from Example 7) were concurrently added for co-culture, and the expression levels of the cellular molecular markers were detected after 24 hours.

In another series the test system is male C57BL/6 mice. The series is described as follows: Androgenetic (seborrheic) hair loss mouse model (DHT). The following applies: 28 days. It is filed as in vivo. On the procedure:
7-week-old male C57BL/6 mice were treated with application of DHT (a modeling and experimental cycle of 28 days).
Hair at a telogen phase on 2×2 cm areas of dorsa was removed, and the areas were depilated using a hair removal cream. A DHT solution (0.2%, w/v) was prepared in an ethanol solution (50%, v/v). Mice received topical application of the DHT solution (0.1 mL/cm^2) to the depilated areas, once a day, for 28 consecutive days. Mice in the other group received the polypeptide via oral gavage at a concentration of 0.5 mg/kg/day while applied with the DHT daily.

The next series has as its target T1, GPR158 receptor (Homo sapiens, UniProt Q5T848).
T1 construct: expressed in transfected cells; host or cells: HeLa cell line highly expressing GPR158 (GPR158-HeLa)
T1 sequence (Q5T848 24-1215): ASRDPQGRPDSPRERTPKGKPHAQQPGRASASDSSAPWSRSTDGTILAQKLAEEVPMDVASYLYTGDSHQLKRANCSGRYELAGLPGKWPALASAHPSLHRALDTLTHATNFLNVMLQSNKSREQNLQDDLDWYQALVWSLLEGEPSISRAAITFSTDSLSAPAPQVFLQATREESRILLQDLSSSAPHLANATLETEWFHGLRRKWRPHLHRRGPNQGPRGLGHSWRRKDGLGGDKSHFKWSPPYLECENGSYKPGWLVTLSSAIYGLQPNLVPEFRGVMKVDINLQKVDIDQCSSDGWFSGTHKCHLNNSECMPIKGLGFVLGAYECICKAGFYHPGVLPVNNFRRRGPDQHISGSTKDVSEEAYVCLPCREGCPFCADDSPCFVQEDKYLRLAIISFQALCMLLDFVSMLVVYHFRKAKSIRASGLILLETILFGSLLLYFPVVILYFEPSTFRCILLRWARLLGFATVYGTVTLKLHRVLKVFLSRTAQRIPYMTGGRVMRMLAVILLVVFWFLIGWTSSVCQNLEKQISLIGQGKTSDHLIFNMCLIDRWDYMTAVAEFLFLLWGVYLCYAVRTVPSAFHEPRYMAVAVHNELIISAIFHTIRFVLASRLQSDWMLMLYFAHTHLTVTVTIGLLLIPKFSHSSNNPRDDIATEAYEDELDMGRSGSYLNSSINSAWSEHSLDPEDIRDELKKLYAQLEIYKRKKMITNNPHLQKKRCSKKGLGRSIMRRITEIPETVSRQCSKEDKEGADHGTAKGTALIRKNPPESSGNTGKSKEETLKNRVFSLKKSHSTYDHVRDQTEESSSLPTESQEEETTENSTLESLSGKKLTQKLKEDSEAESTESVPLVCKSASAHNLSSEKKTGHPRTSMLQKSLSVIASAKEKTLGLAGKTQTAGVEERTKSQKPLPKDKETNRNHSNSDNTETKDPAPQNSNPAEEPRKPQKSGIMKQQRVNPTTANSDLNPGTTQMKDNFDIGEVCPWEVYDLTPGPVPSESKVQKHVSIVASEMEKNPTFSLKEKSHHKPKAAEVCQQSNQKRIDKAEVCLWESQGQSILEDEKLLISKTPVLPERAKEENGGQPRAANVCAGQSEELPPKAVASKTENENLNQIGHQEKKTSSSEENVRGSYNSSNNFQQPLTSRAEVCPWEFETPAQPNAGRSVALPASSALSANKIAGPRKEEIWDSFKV
The series is described as follows: Binding of Cy5-labeled Ocn49/Ocn19 to HeLa cells highly expressing GPR158. It counts as cell-based. The following applies: Cy5-labeled polypeptide incubated with GPR158-HeLa cells at 4° C., washed with PBS, FIG. 7. The method, then: The polypeptide prepared in Example 1 was employed in this example, and a binding condition was observed via in vitro culture of the polypeptide with a Hela cell line highly expressing a GPR158 receptor.
(§1) A specific method involved that Cy5-labeled full-length human osteocalcin Ocn49, truncated human osteocalcin Ocn19 (SEQ ID NO.1), and HeLa cells highly expressing GPR158 were incubated at 4° C., and cells were subsequently washed with PBS. Polypeptides incapable of binding to the cells were considered as non-specific ligands, while polypeptides capable of binding to the cells were considered as specifically binding ligands. An interaction between the polypeptides and the receptor was verified accordingly.

Series [2] concerns brains, ovaries, uteruses and adrenal glands of female mice. The series is described as follows: In vivo targeting of polypeptide-ICG/Cy5 probe in female mice (small animal imaging). Details: species or system mouse. The following applies: adult female mice, tail vein injection 100 μL of ICG- or Cy5-labeled polypeptide, imaging after 24 hours, vs control group. The method, then: Adult female mice were intravenously injected via tail veins with the following: the polypeptide-ICG probe solution prepared in Example 2/Cy5-labeled polypeptide, an ICG solution (2 mM)/control polypeptide (a scrambled, irrelevant polypeptide), and a phosphate buffered saline (PBS). Each mouse received an injection volume of 100 μL. After 24 hours, detection was performed using a small animal imaging instrument.

The subject of series [3] is brain, gonad and adrenal gland tissues of male mice. The series is described as follows: In vivo targeting of Cy5-labeled polypeptide in male mice (small animal imaging). More on the design: species or system mouse. The following applies: adult male mice, tail vein injection 100 μL of Cy5-labeled polypeptide, imaging after 24 hours, vs control group. The method, then:
Adult male mice were intravenously injected via tail veins with the following: the Cy5-labeled polypeptide prepared in Example 2, a control polypeptide (a scrambled, irrelevant polypeptide), and a PBS. Each mouse received an injection volume of 100 μL. After 24 hours, detection was performed using a small animal imaging instrument.

Series [4] has as its system human primary dermal papilla cells. The series is described as follows: Cortisol-induced psychological stress hair loss cell model. It is filed as cell-based. Conditions: 1 μM cortisol, 24 hours. On the procedure: A fibroblast medium was used as a medium. […] Expression levels of cellular molecular markers (including 5α-dehydrogenase, GR, AR, CD200, IL-6, BCL2, and BAX) were detected after 24 hours.

The target in series [5] is T2, human GPR158 receptor (on HeLa cells highly expressing a GPR158 receptor) (human, UniProt Q5T848 24-1215).
T2 construct: whole, on cells; also called GPR158-HeLa cells; human GPR158 receptor cells
T2 sequence (looked up): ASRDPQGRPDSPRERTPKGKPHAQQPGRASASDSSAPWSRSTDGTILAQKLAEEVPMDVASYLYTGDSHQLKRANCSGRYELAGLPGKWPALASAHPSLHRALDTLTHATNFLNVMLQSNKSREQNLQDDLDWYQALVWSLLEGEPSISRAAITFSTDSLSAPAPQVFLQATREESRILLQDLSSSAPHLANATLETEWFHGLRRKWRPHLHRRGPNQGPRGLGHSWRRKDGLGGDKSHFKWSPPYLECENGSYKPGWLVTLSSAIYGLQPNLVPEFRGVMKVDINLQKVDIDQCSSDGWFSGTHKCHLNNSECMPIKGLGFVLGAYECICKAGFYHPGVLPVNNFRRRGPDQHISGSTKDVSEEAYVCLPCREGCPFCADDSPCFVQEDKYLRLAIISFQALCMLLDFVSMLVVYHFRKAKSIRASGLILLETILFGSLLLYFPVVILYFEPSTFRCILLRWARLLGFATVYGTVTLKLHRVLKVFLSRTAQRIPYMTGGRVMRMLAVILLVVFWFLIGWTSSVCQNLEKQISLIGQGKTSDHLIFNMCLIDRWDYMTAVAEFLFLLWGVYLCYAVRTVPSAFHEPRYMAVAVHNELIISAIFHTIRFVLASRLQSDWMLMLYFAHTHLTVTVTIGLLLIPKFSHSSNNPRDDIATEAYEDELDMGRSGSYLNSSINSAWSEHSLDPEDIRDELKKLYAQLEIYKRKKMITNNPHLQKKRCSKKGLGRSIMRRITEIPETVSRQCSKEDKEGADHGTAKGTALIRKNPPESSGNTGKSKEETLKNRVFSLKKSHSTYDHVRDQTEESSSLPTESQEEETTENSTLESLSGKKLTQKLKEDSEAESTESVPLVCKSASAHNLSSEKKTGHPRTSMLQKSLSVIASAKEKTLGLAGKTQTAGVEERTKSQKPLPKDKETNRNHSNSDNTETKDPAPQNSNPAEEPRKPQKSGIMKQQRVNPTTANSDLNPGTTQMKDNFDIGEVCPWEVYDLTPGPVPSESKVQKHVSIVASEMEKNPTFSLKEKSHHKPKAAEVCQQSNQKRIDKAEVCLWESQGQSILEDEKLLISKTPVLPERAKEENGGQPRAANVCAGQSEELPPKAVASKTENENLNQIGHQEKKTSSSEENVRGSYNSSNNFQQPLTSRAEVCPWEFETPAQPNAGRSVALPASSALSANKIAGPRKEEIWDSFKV
The series is described as follows: Cy5-labelled polypeptide incubated at 4 C with HeLa cells highly expressing GPR158, washed with PBS, fluorescence imaging. On the procedure: as §1

Setting [6] is: topical DHT 0.2% w/v, 0.1 mL/cm^2 once a day.

Like-named read-outs stand apart in the source and are kept apart here. Where a SMILES comes first, the peptide text is derived from it. Where no end group is shown, it is not given here.

On to `C[C@]12CCC(=O)C[C@@H]1CC[C@@H]1[C@@H]2CC[C@]2(C)[C@@H](O)CC[C@@H]12` [DHT, dihydrotestosterone], for which, in series [1], the “apoptosis of hair follicle cells (Caspase-3, BCL2, BAX)” value is “increased”; the “expression level of hair follicle regression marker MMP-9” value was “increased”; the “expression level of hair follicle stem cell marker CD200” value was “decreased”; the “expression levels of androgen receptor (AR), 5α-reductase, androgen synthesis-related enzymes (3βHSD and 17βHSD3)” value was “significantly increased”. Further, in series [1], the “expression levels of fatty acid-binding protein FABP3 and adipogenic differentiation factor PPARγ” value is on record as “increased”; the “expression levels of inflammatory factors (TGF-β, TNF-α, and IL-6)” value was “increased”. Moreover, the “expression level of AR in cervicodorsal skins (immunofluorescence)” value with male C57BL/6 mice (topical DHT 0.2% w/v once a day, FIG. 13) is “significantly increased”. The “genes related to lipases, adipocyte differentiation, and lipoproteins in cervicodorsal skins” value in the series with male C57BL/6 mice (topical DHT 0.2% w/v once a day, FIG. 14) is “significantly increased”. Moreover, in the series on male C57BL/6 mice (setting [6]), the “skin expression level of β-catenin gene” value is given as “decrease”; the “skin expression levels of TGF-β, DKK1, IL-6, and AR genes” value is “increase”.

Take “YLYQWLGAPVPYPDPLEPR (listed as Homo sapiens) [Ocn19, human osteocalcin-derived peptide (truncated human osteocalcin)]”: in the series with GPR158 receptor, the “binding to the GPR158 receptor” value is “capable of binding to the GPR158 receptor” and the “internalization of the GPR158 receptor” value was “induces internalization of the GPR158 receptor”.

For `CC(C)C[C@H](NC(=O)[C@@H](N)Cc1ccc(O)cc1)C(=O)NCC(=O)N[C@@H](C)C(=O)N[C@@H](CO)C(=O)N[C@H](C(=O)N1CCC[C@H]1C(=O)N[C@@H](CO)C(=O)N1CCC[C@H]1C(=O)N[C@@H](CC(=O)O)C(=O)N1CCC[C@H]1C(=O)N[C@@H](CC(C)C)C(=O)N[C@@H](CCC(=O)O)C(=O)N1CCC[C@H]1C(=O)N[C@H](C(=O)O)[C@@H](C)O)C(C)C` [mO15, YLGASVPSPDPLEPT] (H-YLGASVPSPDPLEPT-OH; N-terminus and C-terminus assumed), in series [2], the “fluorescence signals in brain tissues (brain entry)” value is on record as “enters the brains”; the “localization and binding in hypothalamus, ovary and uterus, and adrenal gland tissues (fluorescence signals)” value is “specific localization and binding capabilities”. Besides, in series [3], the “fluorescence signals in brain tissues (brain entry)” value is given as “enters the brains”; the “localization and binding in brain, gonad (testis, epididymis) and adrenal gland tissues (fluorescence signals)” value was “specific localization and binding capabilities”.

In the case of “Ocn49: full-length human osteocalcin (YLYQWLGAPVPYPDPLEPRREVCELNPDCDELADHIGFQEAYRRFYGPV)”, in the series with GPR158 receptor, the “binding to the GPR158 receptor” value was “capable of binding to the GPR158 receptor” and the “internalization of the GPR158 receptor” value is “induces internalization of the GPR158 receptor”.

With `C[C@]12CCC(=O)C=C1CC[C@@H]1[C@@H]2[C@@H](O)C[C@@]2(C)[C@H]1CC[C@]2(O)C(=O)CO` [cortisol], in series [4], the “apoptosis of hair follicle cells (Caspase-3, BCL2, BAX)” value was “increased”; the “expression level of hair follicle regression marker MMP-9” value is listed as “increased”; the “expression levels of STIP1 and inflammatory factors (TGF-β1 and IL-6)” value was “increased”; the “expression levels of glucocorticoid receptor (GR), androgen receptor (AR), and 5α-reductase” value is reported as “significantly increased”. Moreover, the “expression levels of hair growth marker GAS6 and hair follicle stem cell markers CD200 and CD133” value in series [4] is listed as “decreased”.

B1: full-length human osteocalcin Ocn49 (ligand, UniProt P02818 52-100, looked up)
chain: YLYQWLGAPVPYPDPLEPRREVCELNPDCDELADHIGFQEAYRRFYGPV
modifications: ends and bridges not checked; also: Cy5 label, site not given here
notes: mature; also called human Ocn49
For the molecule B1, in series [5], the binding result is “binds”.

B2: truncated human osteocalcin Ocn19 (human osteocalcin-derived peptide) (peptide)
peptide: YLYQWLGAPVPYPDPLEPR
modifications: not fully specified
notes: also called human Ocn19
For B2, in series [5], the binding result is listed as “binds”.
